In this experiment the test system is DOX aptamer (DNA, aptamer) ACCATCTGTGTAAGGGGTAAGGGGTGGT
In words: electrochemical aptasensor, SWV, Langmuir isotherm fit. To be noted: PBS 0.1 M (Na+/K+ concentrations not given), PBS pH 7.4, room temperature, 20 min incubation, immobilised aptamer.

These results are taken from PMC10096947 (2023).

As to `COc1cccc2c1C(=O)c1c(O)c3c(c(O)c1C2=O)C[C@@](O)(C(=O)CO)C[C@@H]3O[C@H]1C[C@H](N)[C@H](O)[C@H](C)O1`, the apparent dissociation constant was determined as 2.55 µM.
